# Values of other authors, collected in patent US20230107398A1, “IMMEDIATE RELEASE FORMULATIONS OF d-LYSERGIC ACID DI[…] THERAPEUTIC APPLICATIONS” (Mind Medicine, Inc., priority 2021, published 2023).
# Settings: room temperature
compound,measurement,value
"CCN(CC)C(=O)[C@@H]1C=C2c3cccc4[nH]cc(c34)C[C@H]2N(C)C1 [LSD, 9,10-didehydro-N,N-diethyl-6-methylergoline-8β-carboxamide]",Stability in oral solution,not stable
